Data set [1] concerns MDA-MB-435 or MDA-MB231 or SKOV-3 cells. The experiment in a line: Tumor cell viability (MTS) assay. The class given is cell-based. As for the experimental part: The cytotoxicity of test compounds is determined using the CellTiter96 Aqueous One Solution Assay (Promega, Madison, Wis.). Briefly, MDA-MB-435 or MDA-MB231 or SKOV-3 cells were seeded in a 96-well plate at a density of 2000 cells/well on the day prior to treatment with sigma-2 receptor selective ligands. […] The plate is read at 490 nm in a Victor3 plate reader (PerkinElmer Life and Analytical Sciences, Shelton, Conn.). The EC^50 value, defined as the concentration of the sigma ligand required to inhibit cell viability by 50% relative to untreated cells, is determined from the dose response curve for each cell line. Siramesine is accepted as an agonist.

A further data set deals with neurons. The following applies: 24 hours treatment; cited from earlier work.
The next data set deals with caspase-3. The note with it: cited from earlier work; for caspase-3 activation: tumor cells and neurons.
For data set [2], the system named is Abeta oligomer-induced synapse loss in primary hippocampal neurons. As to the kind of experiment: Abeta 1-42 oligomer binding and synapse loss assay. The class given is cell-based, rat.
Description: Primary hippocampal neuronal culture is established as in the membrane trafficking assay above. […] Pretreatment with test compounds for 1 hr and addition of Abeta oligomers or no oligomer (vehicle alone) is followed by incubation for an additional 23 hrs.
The plates are then washed 3× with PBS for 5 min each. The plates are blocked at RT for 1 hr in 5% goat serum and 0.5% Triton X-100 in PBS. Primary antibodies (anti-MAP 2 polyclonal, Millipore #AB5622 and anti-Beta Amyloid 6E10 monoclonal, Covance #SIG-39300, at 1 microgram/ml, and rabbit polyclonal anti-synaptophysin, Anaspec, at 0.2 microgram/ml) were diluted 1:1000 in 5% goat serum with PBS. Primary antibodies are incubated overnight at 4° C. The plates are then washed 3× with PBS for 5 min each. Secondary antibodies (Alex Flor 488 polyclonal, Invitrogen #A11008 and Alexa Flor 647 monoclonal, Invitrogen #A21235) are diluted 1:1000 in 5% goat serum with PBS. Secondary antibodies are incubated at RT for 1 hr. The plates are washed once with PBS. DAPI (4′,6-diamidino-2-phenylindole, Invitrogen) is then applied at 0.03 ug/ul and incubated at RT for 5 min, then washed with PBS.
The test system of data set [3] is Abeta oligomer-induced membrane trafficking deficits in primary hippocampal neurons. The experiment in a line: Membrane trafficking/exocytosis (MTT) assay. The note with it: read-out: Membrane Trafficking EC50; compound dosed prior to Abeta oligomer addition.
Description: Primary hippocampal neurons from E18 Sprague-Dawley rat embryos were plated at optimized concentrations in 384 well plates in NB media (Invitrogen). Neurons were maintained in cultures for 3 weeks, with twice weekly feeding of NB media with N2 supplement (Invitrogen).
MTT reagent (3-(4,5-dimethylthizaol-2yl)-2,5diphenyl tetrazolium bromide) (Roche Molecular Biochemicals) was reconstituted in phosphate buffered saline to 5 mg/mL. 10 μL of MTT labeling reagent is added to each well and incubated at 37° C. for 1 h, then imaged. Exocytosis was assessed by automated microscopy and image processing to quantify the amount of endocytosed and exocytosed formazan.
Each assay plate was formatted so that compounds are tested with and without Abeta oligomer on each plate. […] Reduced formazan was first visible in intracellular vesicles. […] The dye precipitated in the aqueous environment of the culture and formed needle-shaped crystals on the surface of the neuron.
Data set [4] can be described thus: Mouse liver microsome (MLM) stability. The class given is in vitro ADME. The note with it: mouse, microsomes. How it is done:
A first pharmacokinetic study was performed in microsomes of mice mouse liver microsomes, MLM) by a commercial contract research organization. The studies were performed according to Obach, R. S et al. (1997) J. Pharmacol. Exp. Ther., 283: 46-58, which is incorporated herein by reference.

The target in a further data set is potassium channel hERG (Homo sapiens (Human), UniProt Q12809). The experiment in a line: In vitro toxicity, hERG inhibition. The class given is biochemical. (In general: Block of hERG is tested as a sign of cardiac risk.)
Sequence of potassium channel hERG (Q12809 whole entry): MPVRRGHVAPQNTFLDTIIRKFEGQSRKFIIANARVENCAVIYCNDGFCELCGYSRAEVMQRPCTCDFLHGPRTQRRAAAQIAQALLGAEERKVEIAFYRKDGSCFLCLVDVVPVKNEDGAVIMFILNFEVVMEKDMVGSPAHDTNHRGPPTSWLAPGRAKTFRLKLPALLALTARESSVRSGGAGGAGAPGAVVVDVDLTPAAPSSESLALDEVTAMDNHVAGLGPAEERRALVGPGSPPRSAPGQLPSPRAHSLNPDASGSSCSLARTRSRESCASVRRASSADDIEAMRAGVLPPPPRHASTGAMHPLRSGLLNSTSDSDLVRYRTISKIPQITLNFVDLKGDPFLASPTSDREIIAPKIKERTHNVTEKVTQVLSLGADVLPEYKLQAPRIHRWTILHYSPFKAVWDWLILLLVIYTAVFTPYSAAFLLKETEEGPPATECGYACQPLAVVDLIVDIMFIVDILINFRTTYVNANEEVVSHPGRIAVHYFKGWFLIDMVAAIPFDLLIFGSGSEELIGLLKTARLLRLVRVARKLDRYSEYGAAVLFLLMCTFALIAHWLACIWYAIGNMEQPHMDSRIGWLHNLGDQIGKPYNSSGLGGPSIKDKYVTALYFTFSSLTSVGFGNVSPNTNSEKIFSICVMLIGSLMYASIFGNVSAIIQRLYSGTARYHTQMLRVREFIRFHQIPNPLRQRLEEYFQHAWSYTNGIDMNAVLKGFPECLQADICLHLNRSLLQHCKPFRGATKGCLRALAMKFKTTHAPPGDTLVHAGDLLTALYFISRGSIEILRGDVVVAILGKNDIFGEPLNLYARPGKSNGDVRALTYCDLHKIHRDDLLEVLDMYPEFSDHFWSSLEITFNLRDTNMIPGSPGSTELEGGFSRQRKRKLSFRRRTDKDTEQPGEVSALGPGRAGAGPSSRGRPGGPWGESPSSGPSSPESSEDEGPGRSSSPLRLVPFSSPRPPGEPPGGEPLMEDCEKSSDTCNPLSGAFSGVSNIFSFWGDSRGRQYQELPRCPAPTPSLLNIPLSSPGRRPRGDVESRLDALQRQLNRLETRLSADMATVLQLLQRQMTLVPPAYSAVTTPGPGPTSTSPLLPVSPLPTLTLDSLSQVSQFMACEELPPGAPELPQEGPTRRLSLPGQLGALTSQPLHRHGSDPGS
The next data set addresses Sigma-2 receptor. As to the kind of experiment: Sigma-2 receptor competitive radioligand binding assay. Set-up: species or system rat. The following applies: read-out: Sigma-2 Receptor Affinity, Ki.
For the next data set, the system named is neuronal cultures. The experiment in a line: Functional neuronal phenotype in neuronal cultures. The class given is cell-based. Set-up: key: Antagonist: antagonists (block Abeta signaling); Agonist: agonists (block Abeta signaling with U-shaped dose-response curve and toxicity at high doses); Inactive: inactive (no effect in neuronal cultures).
Another data set has as its target Sigma-1 receptor. The experiment in a line: Sigma-1 receptor competitive radioligand binding assay. The following applies: read-out: Sigma-1 Receptor Affinity, Ki.

Entries after “also recorded” stand apart in the source; their conditions may differ.

The values that follow come from patent US9796672B2, “Isoindoline compositions and methods for treating neurodegenerative disease” (Cognition Therapeutics, Inc., priority 2014, dated 2017).

Description for Sigma-1 receptor: Radioligand binding assays for Sigma-1 receptors and Sigma-2 receptors were carried out by a commercial contract research organization. For Sigma-1 binding, various concentrations of test compounds from 100 μM to 1 nM were used to displace 8 nM [^3H](+)pentazocine from endogenous receptors on Jurkat cell membranes (Ganapathy M E et al. 1991, J Pharmacol. Exp. Ther. 289:251-260). 10 μM Haloperidol was used to define non-specific binding. […] 10 μM Haloperidol was used to define non-specific binding. Reactions were terminated by rapid filtration through Whatman GF/C filters using a Brandel 12R cell harvester followed by two washes with ice-cold buffer. Radioactivity on the dried filter discs was measured using a liquid scintillation analyzer (Tri-Carb 2900TR; PerkinElmer Life and Analytical Sciences). The displacement curves were plotted and the Ki values of the test ligands for the receptor subtypes were determined using GraphPad Prism (GraphPad Software Inc., San Diego, Calif.). The percentage specific binding was determined by dividing the difference between total bound (disintegrations per minute) and nonspecific bound (disintegrations per minute) by the total bound (disintegrations per minute).
Description for Sigma-2 receptor: Radioligand binding assays for Sigma-1 receptors and Sigma-2 receptors were carried out by a commercial contract research organization. For Sigma-1 binding, various concentrations of test compounds from 100 μM to 1 nM were used to displace 8 nM [^3H](+)pentazocine from endogenous receptors on Jurkat cell membranes (Ganapathy M E et al. 1991, J Pharmacol. Exp. Ther. 289:251-260). 10 μM Haloperidol was used to define non-specific binding. For Sigma-2 receptors various concentrations of test compounds from 100 μM to 1 nM were used to displace 5 nM [^3H] […] (Bowen W D, et al. 1993, Mol. Neuropharmcol 3:117-126). 10 μM Haloperidol was used to define non-specific binding. Reactions were terminated by rapid filtration through Whatman GF/C filters using a Brandel 12R cell harvester followed by two washes with ice-cold buffer. Radioactivity on the dried filter discs was measured using a liquid scintillation analyzer (Tri-Carb 2900TR; PerkinElmer Life and Analytical Sciences). The displacement curves were plotted and the Ki values of the test ligands for the receptor subtypes were determined using GraphPad Prism (GraphPad Software Inc., San Diego, Calif.). The percentage specific binding was determined by dividing the difference between total bound (disintegrations per minute) and nonspecific bound (disintegrations per minute) by the total bound (disintegrations per minute).
The affinity of candidate sigma-2 ligand compounds at sigma-1 and sigma-2 receptors was also determined by displacement of different known labeled sigma-2 or sigma-1 ligands. Filtration assays were conducted according the previously published procedure (Xu, et al., 2005). Test compounds were dissolved in N,N-Dimethylformamide (DMF), dimethyl sulfoxide (DMSO) or ethanol and then diluted in 50 mM Tris-HCl pH 7.4 buffer containing 150 mM NaCl and 100 mM EDTA. Membrane homogenates were made from guinea pig brain for sigma-1 binding assay and rat liver for sigma-2 binding assay. Membrane homogenates were diluted with 50 mM Tris-HCl buffer, pH 8.0 and incubated at 25° C. in a total volume of 150 uL in 96 well plates with the radioligand and test compounds with concentrations ranging from 0.1 nM to 10 uM. After incubation was completed, the reactions were terminated by the addition of 150 uL of ice-cold wash buffer (10 mM Tris HCl, 150 mM NaCl, pH 7.4) using a 96 channel transfer pipette (Fisher Scientific, Pittsburgh, Pa.) and the samples harvested and filtered rapidly through 96 well fiber glass filter plate (Millipore, Billerica, Mass.) that had been presoaked with 100 uL of 50 mM Tris-HCl buffer. Each filter was washed four times with 200 uL of ice-cold wash buffer (10 mM Tris-HCl, 150 mM NaCl, pH 7.4). A Wallac 1450 MicroBeta liquid scintillation counter (Perkin Elmer, Boston, Mass.) was used to quantitate the bound radioactivity.
Nonspecific binding was determined from samples that contained 10 uM of cold haloperidol.
The binding affinity, Ki values was calculated using the method of Cheng and Prusoff.
Description for neuronal cultures: Neuronal cultures are treated with various concentrations of sigma compounds for 24 hours and nuclear intensity compared to vehicle is measured.
Description for potassium channel hERG: In vitro toxicity for Test Compounds is tested in a number of standard assays.

As a reminder, the IC50 is the concentration that gives 50% inhibition. Regarding `COc1ccc(C)cc1NC(=O)OC1C[C@H]2CCC[C@@H](C1)N2CCCCCCN` (stereo partly drawn) [SV-119], the Action result in [1] is “Full agonist”. In addition, the IC50 in data set [1] (read-out: IC50, 48 hrs., Tumor cell viability, 48 hrs) was 21700 ± 2900 nM. Also, the “nuclear morphology / nuclear intensity in neurons” value in the data set with neurons is recorded as “cause significant abnormal nuclear morphology in neurons”. For the same compound, the caspase-3 activation entry in the data set on caspase-3 was “activate caspase-3 in tumor cells and neurons”.

As to `Fc1ccc(-n2cc(CCCCN3CCC4(CC3)OCc3ccccc34)c3ccccc32)cc1` [Siramesine], the Action result in data set [1] is on record as “Full agonist”. Besides, the “nuclear morphology / nuclear intensity in neurons” value with neurons is on record as “cause significant abnormal nuclear morphology in neurons”. The caspase-3 activation result in the data set on caspase-3 is “activate caspase-3 in tumor cells and neurons; also recorded: induces caspase-3 activity”.

With `CCC(Oc1ccc(Cl)cc1)C(=O)OC1CC2CCC(C1)N2C` (stereo not drawn) [SM-21], in data set [2], the “elimination of Abeta oligomer-induced synapse loss” value was “only weakly active in eliminating synapse loss” and the synapse loss recovery is listed as 20%.

The term EC50 denotes the concentration at which the effect is half-maximal. The term Ki denotes the equilibrium dissociation constant of an inhibitor or competing ligand from its target. For `CC(C)Oc1cc(CC[C@@H](C)N2Cc3cccc(F)c3C2)ccc1O` [compound 26], the EC50 in [3] was more than 20000 nM. Moreover, the “Mouse liver microsomes, MLM t½” value in data set [4] was determined as 4 min. Besides, half-maximal inhibition against potassium channel hERG (IC50) was put at 3700 nM. In addition, the values for the Ki at Sigma-2 receptor and at Sigma-1 receptor were 41 nM and 7.9 nM, respectively. In addition, the neuronal phenotype result in the data set on neuronal cultures is “Inactive”.

On to `CC(C)(CCc1ccc(O)c(OC(F)(F)F)c1)N1Cc2cccc(F)c2C1` [compound 54], for which the EC50 in data set [3] was 6500 nM. In addition, in [4], the “Mouse liver microsomes, MLM t½” value came out at 12 min. The compound further showed an IC50 on potassium channel hERG of 2500 nM. Moreover, the figures for the Ki at Sigma-2 receptor and on Sigma-1 receptor were 18 nM and 74 nM, respectively. Also, in the data set with neuronal cultures, the neuronal phenotype entry is given as “Antagonist”.

Consider `COc1cc2c(cc1OC)CN(C(C)(C)CCc1ccc(OCCO)c(OC)c1)C2` [compound 48], for which, in [3], the EC50 is more than 20000 nM. Also, in data set [4], the “Mouse liver microsomes, MLM t½” value turned out to be 582 min. The compound further registered an IC50 against potassium channel hERG of 1700 nM. Besides, the inhibition constant (Ki) on Sigma-2 receptor was 22 nM; on Sigma-1 receptor, 3600 nM. In addition, in the data set on neuronal cultures, the neuronal phenotype result is listed as “Inactive”.

For `CC(C)(C)Oc1cc(CCC(C)(C)N2Cc3ccc(S(C)(=O)=O)cc3C2)ccc1O` [compound 62], in data set [3], the EC50 came to 60 nM. The “Mouse liver microsomes, MLM t½” value in data set [4] is listed as 45 min. On potassium channel hERG, this compound showed an IC50 of 26000 nM. Moreover, the Ki on Sigma-2 receptor was 8.5 nM; on Sigma-1 receptor, 63 nM. In the data set on neuronal cultures, the neuronal phenotype result was “Antagonist”.

With `COc1cc(CCC(C)(C)N2Cc3cccc(C(=O)N4CCN(C(C)=O)CC4)c3C2)ccc1O` [compound 83], the EC50 in data set [3] was 100000 nM. Further, the “Mouse liver microsomes, MLM t½” value in data set [4] stood at 336 min. 10000 nM corresponded to half-maximal inhibition on potassium channel hERG (IC50). Besides, the inhibitory constant (Ki) at Sigma-2 receptor and at Sigma-1 receptor was 10000 nM in each case. Besides, the neuronal phenotype entry in the data set with neuronal cultures was “Inactive”.

Take `COc1cc2c(cc1OC)CN(CCCCNC(=O)c1cc(C)ccc1OC)CC2` [RHM-1, N-[4-(3,4-dihydro-6,7-dimethoxyisoquinolin-2(1H)-yl)butyl]-2-methoxy-5-methylbenzamide]: the Action entry in data set [1] was “Antagonist”. Moreover, the “nuclear morphology / nuclear intensity in neurons” value in the data set with neurons was “do not decrease nuclear intensity”. In the data set with caspase-3, the caspase-3 activation result is “do not induce caspase-3 activity”. Further, the “inhibition of caspase-3 activation” value in the data set on caspase-3 (tumor cells) is on record as “inhibits the activation in tumor cells”.

Regarding `COc1cc(CC[C@@H](C)N2Cc3cc4c(cc3C2)OCO4)ccc1OCCO` [compound 52], the EC50 in data set [3] was found to be 300 nM. For the same compound, in data set [4], the “Mouse liver microsomes, MLM t½” value came to 97 min. Moreover, the IC50 against potassium channel hERG turned out to be 3200 nM. In addition, the Ki stood at 540 nM on Sigma-2 receptor and 130 nM at Sigma-1 receptor. Also, the neuronal phenotype result with neuronal cultures was “Antagonist”.

In the case of `CC(C)Oc1cc(CCC(C)(C)N2Cc3cc4c(cc3C2)OCO4)ccc1O` [compound 29], the EC50 in data set [3] was more than 20000 nM. Further, in data set [4], the “Mouse liver microsomes, MLM t½” value turned out to be 6 min. The compound also returned an IC50 against potassium channel hERG of 540 nM. Besides, the Ki on Sigma-2 receptor amounted to 13 nM; at Sigma-1 receptor, 47 nM. Further, the neuronal phenotype result in the data set with neuronal cultures was “Inactive/”.

For the compound `CCCN(CCC)CCc1ccc(OC)c(OCCc2ccccc2)c1` [NE-100], the “elimination of Abeta oligomer-induced synapse loss” value in data set [2] is “completely eliminated synapse loss”.

`O=C(CCCN1CCC(O)(c2ccc(Cl)cc2)CC1)c1ccc(F)cc1` [haloperidol]: in data set [2], the “elimination of Abeta oligomer-induced synapse loss” value is “completely eliminated synapse loss”.

Regarding `CC(C)(C)Oc1cc(CCC(C)(C)N2Cc3cccc(C(=O)O)c3C2)ccc1O` [compound 75], the EC50 in data set [3] is more than 20000 nM. In data set [4], the “Mouse liver microsomes, MLM t½” value is given as 508 min. The compound also had an IC50 against potassium channel hERG of 100000 nM. In addition, the Ki on Sigma-2 receptor was more than 10000 nM; on Sigma-1 receptor it was 10000 nM. In addition, the neuronal phenotype entry in the data set with neuronal cultures is listed as “Inactive”.

`C[C@H](CCc1ccc(F)cc1)N1Cc2ccc(F)cc2C1` [compound 22]: the EC50 in data set [3] was less than 250 nM. Moreover, the “Mouse liver microsomes, MLM t½” value in data set [4] was determined as 7 min. The compound also registered a half-inhibitory concentration (IC50) against potassium channel hERG of 350 nM. Further, the Ki came out at 23 nM at Sigma-2 receptor and 44 nM on Sigma-1 receptor. Further, the neuronal phenotype result with neuronal cultures is “Antagonist”.

Regarding `CN(C)C(=O)c1cccc2c1CN(C(C)(C)CCc1ccc(O)c(OC(F)(F)F)c1)C2` [compound 57], in data set [3], the 50% effective concentration (EC50) is more than 20000 nM. Besides, the “Mouse liver microsomes, MLM t½” value in data set [4] came to 26 min. On potassium channel hERG, it took 5000 nM to reach half-maximal inhibition (IC50). Further, the Ki was 95 nM at Sigma-2 receptor and 700 nM on Sigma-1 receptor. For the same compound, in the data set on neuronal cultures, the neuronal phenotype result is recorded as “Inactive”.

With `CC(C)(CCc1ccc(F)cc1)N1Cc2cc3c(cc2C1)OCO3` [compound 36], in data set [3], the EC50 was 860 nM. Besides, the “Mouse liver microsomes, MLM t½” value in data set [4] worked out at 47 min. For the same compound, the IC50 against potassium channel hERG stood at 19 nM. Further, the Ki on Sigma-2 receptor is 5.2 nM; at Sigma-1 receptor it was 4.1 nM. Besides, in the data set on neuronal cultures, the neuronal phenotype entry was “Antagonist”.
